Counter-ions that a name gives are not always drawn.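 Tested at 5 concentrations; 48 h exposure; 96-well plates; endpoints linearly interpolated, else capped at highest concentration. GI50 marks 50% less growth.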 Active and inactive are the calls of the source. Cut-off read from the data, not from the text of the source: active = GI50 up to about 1.1 µM and inactive = higher.
How the values were obtained:
Test in all cases: NCI-60 cell line screen, 48 h
A498 = system: A498
KM12 = system: KM12
SF-295 = system: SF-295
SK-MEL-2 = system: SK-MEL-2
SNB-78 = system: SNB-78
M14 = system: M14
SN12C = system: SN12C
KM-20L2 = system: KM-20L2
CAKI-1 = system: CAKI-1
SK-OV-3 = system: SK-OV-3
IGROV-1 = system: IGROV-1
SNB-19 = system: SNB-19
HOP-62 = system: HOP-62
OVCAR-3 = system: OVCAR-3
TK-10 = system: TK-10
SF-268 = system: SF-268
CCRF-CEM = system: CCRF-CEM
Hs-578T = system: Hs-578T
PC-3 = system: PC-3
BT-549 = system: BT-549

Structure (SMILES)	GI50 (A498)	GI50 (KM12)	GI50 (SF-295)	GI50 (SK-MEL-2)	GI50 (SNB-78)	GI50 (M14)	GI50 (SN12C)	GI50 (KM-20L2)	GI50 (CAKI-1)	GI50 (SK-OV-3)	GI50 (IGROV-1)	GI50 (SNB-19)	GI50 (HOP-62)	GI50 (OVCAR-3)	GI50 (TK-10)	GI50 (SF-268)	GI50 (CCRF-CEM)	GI50 (Hs-578T)	GI50 (PC-3)	GI50 (BT-549)
COc1ccc2[nH]c3c(C)c4c(c(C)c3c2c1)CN(C)CC4	17.9 µM (inactive)	13.9 µM (inactive)	18.8 µM (inactive)	17.2 µM (inactive)	25.3 µM (inactive)	16.3 µM (inactive)	16.3 µM (inactive)	17 µM (inactive)	18.5 µM (inactive)	16.3 µM (inactive)	16.6 µM (inactive)	17.3 µM (inactive)	17.3 µM (inactive)	16 µM (inactive)	23.4 µM (inactive)	18.9 µM (inactive)	3.22 µM (inactive)			
O=c1[nH]c(Br)nc2c(Br)c[nH]c12	> 100 µM (inactive)	> 100 µM (inactive)	> 100 µM (inactive)	> 100 µM (inactive)	> 100 µM (inactive)	> 100 µM (inactive)	> 100 µM (inactive)	> 100 µM (inactive)	> 100 µM (inactive)	> 100 µM (inactive)	> 100 µM (inactive)	> 100 µM (inactive)	> 100 µM (inactive)	> 100 µM (inactive)	> 100 µM (inactive)	> 100 µM (inactive)	> 100 µM (inactive)			
N#Cc1cc(NC(=O)c2ccccc2)c(=O)n2c1[nH]c1ccccc12	22.7 µM (inactive)	43.9 µM (inactive)	71 µM (inactive)	32.1 µM (inactive)	35 µM (inactive)	27.3 µM (inactive)	29.1 µM (inactive)	32.7 µM (inactive)	35.9 µM (inactive)	28.8 µM (inactive)	24.5 µM (inactive)	23.4 µM (inactive)	24.5 µM (inactive)	28.2 µM (inactive)	22.2 µM (inactive)	43.1 µM (inactive)	37.8 µM (inactive)			
Cc1nc(-n2nc(-c3ccccc3)cc2-c2ccccc2)sc1C(=O)CC(=O)C(=O)Nc1ccc(O)cc1	> 100 µM (inactive)	> 100 µM (inactive)	> 100 µM (inactive)	> 100 µM (inactive)	> 100 µM (inactive)	> 100 µM (inactive)	> 100 µM (inactive)	> 100 µM (inactive)	> 100 µM (inactive)	> 100 µM (inactive)	> 100 µM (inactive)	> 100 µM (inactive)	> 100 µM (inactive)	> 100 µM (inactive)	> 100 µM (inactive)	> 100 µM (inactive)	> 100 µM (inactive)			
SCc1ccc(-c2ccc(CS)cc2)cc1	36.5 µM (inactive)	3.11 µM (inactive)	8.97 µM (inactive)	19.7 µM (inactive)	18.3 µM (inactive)	14.3 µM (inactive)	26.3 µM (inactive)	23.6 µM (inactive)	4.42 µM (inactive)	17.6 µM (inactive)	13.5 µM (inactive)	18.3 µM (inactive)	6.75 µM (inactive)	16.4 µM (inactive)	24.3 µM (inactive)	3.33 µM (inactive)	1.43 µM (inactive)	3.98 µM (inactive)	17.4 µM (inactive)	2.42 µM (inactive)
CCS(CC)(CC)CC1CCCC2=CCC(P(=O)(c3ccccc3)c3ccccc3)CC21 (stereo not drawn)	13.6 µM (inactive)	11.4 µM (inactive)	3.81 µM (inactive)	14.2 µM (inactive)	15.4 µM (inactive)	12.2 µM (inactive)	11.9 µM (inactive)	11.5 µM (inactive)	10 µM (inactive)	12.7 µM (inactive)	9.57 µM (inactive)	12.9 µM (inactive)	16.3 µM (inactive)	13.7 µM (inactive)	12.7 µM (inactive)	11.4 µM (inactive)	6.78 µM (inactive)			
Cc1cccc(C)c1NC(=O)C(=O)C(C#N)c1ccccc1Cl (stereo not drawn)	> 100 µM (inactive)	> 100 µM (inactive)	> 100 µM (inactive)	> 100 µM (inactive)	> 100 µM (inactive)	> 100 µM (inactive)	> 100 µM (inactive)	> 100 µM (inactive)	> 100 µM (inactive)	> 100 µM (inactive)	> 100 µM (inactive)	> 100 µM (inactive)	> 100 µM (inactive)	> 100 µM (inactive)	> 100 µM (inactive)	> 100 µM (inactive)	> 100 µM (inactive)			
O=C1OC(=O)C2C1C1(c3ccccc3)OC2(c2ccccc2)c2c(Br)c(Br)c(Br)c(Br)c21 (stereo not drawn)	> 100 µM (inactive)	> 100 µM (inactive)	> 100 µM (inactive)	> 100 µM (inactive)	83.8 µM (inactive)	> 100 µM (inactive)	> 100 µM (inactive)	> 100 µM (inactive)	> 100 µM (inactive)	28.7 µM (inactive)	> 100 µM (inactive)	> 100 µM (inactive)	> 100 µM (inactive)	> 100 µM (inactive)	> 100 µM (inactive)	> 100 µM (inactive)	> 100 µM (inactive)			
CC(C)(C=O)CC(C#N)/C(=N\NC(N)=O)C(=O)Nc1ccccc1C(N)=O (stereo not drawn)	> 100 µM (inactive)	> 100 µM (inactive)	> 100 µM (inactive)	> 100 µM (inactive)	> 100 µM (inactive)	> 100 µM (inactive)	> 100 µM (inactive)	> 100 µM (inactive)	> 100 µM (inactive)	> 100 µM (inactive)	> 100 µM (inactive)	> 100 µM (inactive)	> 100 µM (inactive)	> 100 µM (inactive)	> 100 µM (inactive)	> 100 µM (inactive)	> 100 µM (inactive)			
Clc1ccc2nc(-c3ccccc3)nc(Cl)c2c1	> 100 µM (inactive)	> 100 µM (inactive)	46.3 µM (inactive)	45.6 µM (inactive)	88.1 µM (inactive)		> 100 µM (inactive)	> 100 µM (inactive)	21.1 µM (inactive)	12.3 µM (inactive)	> 100 µM (inactive)	69.2 µM (inactive)	23.9 µM (inactive)	49.2 µM (inactive)	21.7 µM (inactive)	52.8 µM (inactive)	38.6 µM (inactive)			
Nc1cc(=O)n(-c2ccccc2)c(=S)n1-c1ccccc1	> 100 µM (inactive)	> 100 µM (inactive)	> 100 µM (inactive)	> 100 µM (inactive)	> 100 µM (inactive)	> 100 µM (inactive)	> 100 µM (inactive)	> 100 µM (inactive)	> 100 µM (inactive)	> 100 µM (inactive)	> 100 µM (inactive)	> 100 µM (inactive)	> 100 µM (inactive)	> 100 µM (inactive)	> 100 µM (inactive)	> 100 µM (inactive)	> 100 µM (inactive)			
CCOC(=O)C1CC/C(=C(/C#N)C(=O)OC)N1 (stereo not drawn)	> 100 µM (inactive)	> 100 µM (inactive)	> 100 µM (inactive)	> 100 µM (inactive)	> 100 µM (inactive)	> 100 µM (inactive)	> 100 µM (inactive)	> 100 µM (inactive)	> 100 µM (inactive)	57.7 µM (inactive)	> 100 µM (inactive)	> 100 µM (inactive)	> 100 µM (inactive)	> 100 µM (inactive)	> 100 µM (inactive)	> 100 µM (inactive)	> 100 µM (inactive)			
Cc1ccc(-n2c3nc(=O)n(C)c(=O)c-3nc3ccccc32)cc1	26.7 µM (inactive)	17.3 µM (inactive)	11.2 µM (inactive)	14.6 µM (inactive)	30.5 µM (inactive)	12.8 µM (inactive)	11.5 µM (inactive)	5.27 µM (inactive)	21.9 µM (inactive)	95.7 µM (inactive)	31.6 µM (inactive)	12.9 µM (inactive)	43.9 µM (inactive)	3.24 µM (inactive)	27.2 µM (inactive)	35.7 µM (inactive)	17.3 µM (inactive)			
Nc1nc(OCc2ccccc2)c2nc[nH]c2n1 [6-O-BENZYLGUANINE]	57.8 µM (inactive)	98.6 µM (inactive)	121 µM (inactive)	68.9 µM (inactive)	79.8 µM (inactive)	75.9 µM (inactive)	90.4 µM (inactive)	85.7 µM (inactive)	23.1 µM (inactive)	75.7 µM (inactive)	64.6 µM (inactive)	129 µM (inactive)	51.6 µM (inactive)	90.2 µM (inactive)	47.1 µM (inactive)	70 µM (inactive)	66.8 µM (inactive)			
N=c1ccn2c(n1)O[C@H]1[C@H](O)[C@@H](CO)O[C@H]12 [ANCITABINE HYDROCHLORIDE]	13.6 µM (inactive)		25.2 µM (inactive)	411 µM (inactive)	242 µM (inactive)	0.253 µM (active)	1.91 µM (inactive)	> 562 µM (inactive)	1.66 µM (inactive)	66.1 µM (inactive)	151 µM (inactive)		0.292 µM (active)		> 1000 µM (inactive)	7.05 µM (inactive)		> 1000 µM (inactive)	2.79 µM (inactive)	> 1000 µM (inactive)
COc1c(O)c2c(c3cc(C(=O)N4CCc5c4c(O)c(OC)c4[nH]c(C(=O)N6CC7CC78C6=CC(=O)c6[nH]cc(C)c68)cc54)[nH]c13)CCN2C(N)=O (stereo not drawn) [CC-1065]	0.0028 µM (active)	0.003 µM (active)	0.00119 µM (active)		0.00404 µM (active)	0.0016 µM (active)	0.000685 µM (active)	0.00334 µM (active)	0.000975 µM (active)	0.00217 µM (active)		0.00457 µM (active)		0.0197 µM (active)	0.0266 µM (active)	0.00259 µM (active)	0.00507 µM (active)	0.294 µM (active)	0.164 µM (active)	1.04 µM (active)
